Measurements published in patent US12097172B2, “Prevention and treatment of diabetic nephropathy” (THE CHILDREN'S MEDICAL CENTER CORPORATION, priority 2016, dated 2024).
Where a name gives a salt, the structure may show the parent alone.

Tests used:
CXCR1 and CXCR2 = settings: mice; cited from earlier work
db/db mice = assay: KC/CXCR2 axis blockade with Reparixin in db/db diabetic mice (urinary albumin excretion, glycemia, kidney histopathology); format: in vivo
Source text: Kidneys from db/db mice at 8, 12 and 25 weeks of age were surgically removed using standard techniques. To perform standard light microscopy, kidneys were fixed in 4% buffered paraformaldehyde (PFA), dehydrated, and paraffin-embedded. AxioVision software 4.3 was used to record the images from Periodic Acid Schiff (PAS) and Trichrome staining. The evaluation of mesangial matrix was electronically performed using a macro built on the AxioVision analysis module (Carl Zeiss Spa, Thornwood, NY). Glomeruli were identified as a region of interest (ROI) and mesangium was highlighted by a color threshold protocol. Binary images were then produced and mesangium was automatically calculated as percentage of the glomerular area. Image acquisition was performed with a Zeiss Axioscope 40FL microscope and AxioCam MRc5 digital video camera (Carl Zeiss SpA). AxioVision software 4.3 was used to record images and AxioVision analysis module to analyze the results (Carl Zeiss SpA). In order to assess the potential role of IL8 blockade in DN progression, 7 weeks old db/db mice were treated with Reparixin 15 mg/kg (ip) twice a day for 18 weeks (up to 25 weeks of age). Briefly, animals were housed in metabolic cages (Nalgene) to separate feces and urine within a light-controlled environment and provided with water ad-libitum. Sample collection tubes passed below the cages and through small holes in the bottom of the light controlled environment. Urine samples from db/db mice were collected through a metabolic cage at week 8, 12, and 25. The BeadLyte Mouse Multi-cytokine Beadmaster Kit (Millipore, Billerica, MA) was used according to the manufacturer's protocol to determine cytokine levels of IL8. Briefly, the supernatant was incubated with beads conjugated to the IL8 alone for a specified amount of time, and then with biotinylated reporters and streptavidin-phycoerythrin solution for 30 min. A Luminex100 reader (Luminex Corporation, Austin, TX) was used to measure the sample cytokine level. All in vitro and in vivo experimental data presented herein in the examples were performed in triplicate, unless indicated otherwise. Proteinuria in db/db mice was performed in 10 untreated and 30 treated animals. Prism statistical software (La Jolla, CA—USA) was used for data analysis. […] For discrete variables, χ^2 test was used. For all tests, p<0.05 was considered significant.

Human podocyte cells = assay: IL8 challenge of human podocytes in vitro (stress fibers, cortical actin, cell blebbing, synaptopodin); format: cell-based
Procedure: Human podocyte cells bearing a transgene for the thermosensitive (ts58A) variant of the SV40 T antigen, which make them responsive to interferon-γ for proliferation, were cultured and allowed to grow to 80% confluence at 33° C. (designated as day 0). Cells were then thermoshifted to 37° C., causing inactivation of the SV40 T antigen and cessation of cell replication. Podocytes were cultured at different glucose concentrations (normal glucose: 5 mM [NG]; high glucose: 30 mM [HG]) for 5 days. Mannitol was used as an osmotic control for high glucose (mannitol 20 mM+glucose 10 mM) (FIGS. 10A and 10B).
Podocytes were grown on round glass coverslips (VWR, Radnor, PA) were fixed with paraformaldehyde and then permeabilized with 0.3% Triton X-100 (Fisher Scientific, Waltham, MA). Cells were incubated with rhodamine phalloidin (Invitrogen, Carlsbad, CA) to label F-actin networks and visualize stress fibers. Standard fluorescent microscopy was used to assess stress fiber formation. The percentage of cells containing intact actin filaments was assessed by manual cell counting.

C[C@@H](C(=O)NS(C)(=O)=O)c1ccc(OS(=O)(=O)C(F)(F)F)cc1 [Ladarixin, R(-)-2-[(4′-trifluoromethanesulfonyloxy)phenyl] propionyl-methanesulfonamide sodium salt]
effect on type 1 diabetes (CXCR1 and CXCR2): able to block and revert type 1 diabetes in mice

CC(C)Cc1ccc([C@@H](C)C(=O)NS(C)(=O)=O)cc1 [Reparixin, R(-)-2-[(4-isobutylphenyl)propionyl]-methanesulfonamide]
mesangial expansion (kidney histopathology) (db/db mice; db/db mice at 25 weeks of age, treated vs control mice): reduced mesangial expansion
urinary albumin excretion (UAE) (db/db mice; db/db mice at 25 weeks of age, Reparixin 15 mg/kg ip twice a day for 18 weeks, p<0.01 vs Ctrl): 211.1 ± 24.4 µg/mL
urinary albumin levels over time (db/db mice; db/db mice, weeks 8, 12 and 25, Reparixin 15 mg/kg ip twice a day): remained stable over time
effect on glycemic control (db/db mice; db/db mice, Reparixin 15 mg/kg ip twice a day for 18 weeks): No effect
rescue from IL8 induced damage (loss of stress fibers; increase cortical actin; cell blebbing; loss of synaptopodin expression) (Human podocyte cells; reparixin 100 μM, IL8 100 nM, normal glucose and high glucose): able to rescue podocytes from IL8 induced damage

IL8: Interleukin-8 chemokine, ligand of CXCR1 and CXCR2, used as challenge on podocytes
stress fibers (phalloidin staining) (Human podocyte cells; IL8 100 nM, NG and HG, Ctrl vs. IL8 p<0.05): loss of stress fibers
cell morphology (Human podocyte cells; IL8 treatment, NG and HG): cell blebbing
cortical actin (Human podocyte cells; IL8 treatment, NG and HG): dose dependent increase in cortical actin
